Earlier results on one compound are cited in US8053446B2, “Cyanoguanidine compounds” (Leo Pharma A/S, priority 2004, dated 2011).

The subject of series [1] is normal human endothelial cells.
The next series concerns human tumour cells. The following applies: nude mice transplanted with human tumour cells; also against tumour cells resistant to conventional anticancer drugs such as paclitaxel.

For `N#CNC(=Nc1ccncc1)NCCCCCCOc1ccc(Cl)cc1` [N-(6-(4-chlorophenoxy)hexyl)-N′-cyano-N″-(4-pyridyl)guanidine], the antiproliferative activity entry in series [1] is on record as “considerably less antiproliferative activity”. Moreover, in the series on human tumour cells, the antitumour activity entry was “substantial antitumour activity”.
